# From patent US20020001582A1, “Methods and compositions for inhibiting microbial growth” (priority 1999, published 2002)
# How the values were obtained:
# Sclerotinia homoeocarpa = assay: Suppressive treatment of mature bentgrass (lysozyme 24 and 48 hours after inoculation); assay type: in vivo; details: day 7, 14 or 21, except 5,000 ppm on day 21
# Protocol: One year old bentgrass (Agrotis spp.) cv Pennlink was used as the host in this trial. It was grown in an open field at Select Sand Farm in Fort Langley, B.C. Round pieces of turfgrass, 6 cm diameter, were cut out and placed on 5 cm high pots (made from PVC pipes) containing steam sterilized river washed sand. The potted grass was regularly watered, fertilized and maintained at a cutting height of approximately 2.0 cm above the soil surface.
# The efficacy of egg white lysozyme was tested on Sclerotinia homoeocarpa. Virulent isolates of the test fungi were grown on a rye grain medium for approximately one week. This medium consisted of 50 g of rye grain, 1 g of CaCO3, and 75 ml of water. The medium was prepared in a 250 ml Erlenmeyer flask and autoclaved for 30 minutes. Three to five plugs of the actively growing mycelia from one-week-old culture on potato dextrose agar were transferred into flasks, and incubated in the dark at room temperature.
# In a second test three weeks after it was potted, the bentgrass was first inoculated with the test fungi by placing 3 infected rye kernels in the center of the pot, just above the soil surface. After inoculation, the pots were placed in humidity chambers on a greenhouse bench. Temperature during incubation was maintained at 27-30° C. for disease development. […]
# Pots were removed from the humidity chamber and evaluated individually for disease severity. […]
# [1] = tested on: IM111 Botrytis (blueberry, BCMAF F27); assay: Inhibition of Botrytis by lysozyme in PD broth, % plate coverage; assay type: cell-based; details: for fungal growth (% plate coverage): day 14
# Protocol: (§1) Botrytis was grown in petri dishes on PD agar. Potato dextrose broth was prepared, poured into glass dilution bottles (100 ml each), autoclaved and allowed to cool. […] A fungal square (plug) of each culture was cut and placed in/near the center of each plate. Fungal growth was quantified by measuring the diameter of growth of each fungus while it was growing on the liquid media in each petri dish using a ruler. Each treatment was done in triplicate. The experiment was repeated three times (three batches). The observation period for each batch was 2 weeks.
# (§2) The fungal growth was expressed in % coverage of the petri dishes by the fungal patches. The calculation is presented in the following equation:
# (§3) Fungal growth (%)=(area of fungal patch/total plate area )×100
# (§4) The average plate coverage for each treatment was plotted against the time after inoculation (FIGS. 14-19). Statistical analysis was carried out using SigmaStat (Version 2.0, SPSS Science, 1997).
# [2] = tested on: IM113 Botrytis cinerea(Pers.); assay: as above; assay type: cell-based; details: for fungal growth (% plate coverage): day 14
# Protocol: as §1, §2, §3, §4
# [3] = tested on: IM112 Botrytis cinerea(Pers.); assay: as above; assay type: cell-based
# Protocol: as §1, §2, §3, §4
# IM188 Botrytis cinerea = assay: as above; assay type: cell-based; details: for fungal growth (% plate coverage): day 14
# Protocol: as §1, §2, §3, §4
# [4] = tested on: IM082 Botrytis (blueberry, BCMAF F25); assay: as above; assay type: cell-based; details: for coverage of the petri dishes: day 14
# Protocol: as §1, §2, §3, §4
# [5] = tested on: IM080 Botrytis (pepper, BCMAF F24); assay: as above; assay type: cell-based; details: for average fungal growth (% plate coverage): day 14
# Protocol: as §1, §2, §3, §4
# Fusarium = assay: Lysozyme against Fusarium inoculated from liquid broth; assay type: cell-based
# Protocol: PD broth was prepared and autoclaved in dilution bottles (100 ml) and allowed to cool. Various amounts of lysozyme were added into the bottles and dissolved. […] One ml of Fusarium broth was transferred into each dish and the contents were mixed well. The plates were incubated at room temperature for 2 weeks. The trial was carried out in triplicate and was repeated three times. Pictures of the fungi were taken daily using a digital camera and the data was transferred on to the computer and processed.
substance,measurement,setting,value
"lysozyme: type c egg white lysozyme, enzyme of approximately 129 amino acids; commercially available from Canadian Inovatech, Inc.",reducing the infection of S. homoeocarpa,Sclerotinia homoeocarpa,not effective
same,fungal growth (% plate coverage),[1]; 50 ppm,33.7%
same,fungal growth (% plate coverage),[1]; 100 ppm,37.8%
same,fungal growth (% plate coverage),[1]; 250 ppm,23.5%
same,fungal growth (% plate coverage),[1]; 500 ppm,18.0%
same,lowest concentration that significantly reduced the fungal growth,[1]; p<0.05,50 ppm
same,fungal growth (% plate coverage),[2]; 50 ppm,96.9%
same,fungal growth (% plate coverage),[2]; 100 ppm,90.6%
same,fungal growth (% plate coverage),[2]; 250 ppm,65.4%
same,fungal growth (% plate coverage),[2]; 500 ppm,43.0%
same,fungal growth (% plate coverage),[2]; 1000 ppm,34.7%
same,minimum concentration required to effectively inhibit this strain,[2]; p<0.05,100 ppm
same,fungal growth (% plate coverage),[3]; 50 ppm,89.4%
same,fungal growth (% plate coverage),[3]; 100 ppm,90.0%
same,fungal growth (% plate coverage),[3]; 250 ppm,61.5%
same,fungal growth (% plate coverage),[3]; 500 ppm,36.2%
same,fungal growth (% plate coverage),[3]; 1000 ppm,33.9%
same,concentration required to significantly reduce the growth,[3]; p<0.05,100 ppm
same,fungal growth (% plate coverage),IM188 Botrytis cinerea; 50 ppm,87.2%
same,fungal growth (% plate coverage),IM188 Botrytis cinerea; 100 ppm,86.2%
same,fungal growth (% plate coverage),IM188 Botrytis cinerea; 250 ppm,34.0%
same,fungal growth (% plate coverage),IM188 Botrytis cinerea; 500 ppm,16.4%
same,fungal growth (% plate coverage),IM188 Botrytis cinerea; 1000 ppm,11.3%
same,concentration at which the fungal growth was significantly reduced,IM188 Botrytis cinerea; p<0.05,100 ppm
same,coverage of the petri dishes,[4]; 50 ppm,65.8%
same,coverage of the petri dishes,[4]; 100 ppm,59.5%
same,coverage of the petri dishes,[4]; 250 ppm,36.1%
same,coverage of the petri dishes,[4]; 500 ppm,19.9%
same,coverage of the petri dishes,[4]; 1000 ppm,14.4%
same,lowest concentration that significantly reduced the fungal growth,[4]; p<0.05,50 ppm
same,Minimum lysozyme usage recommended,[5],250-500 ppm
same,average fungal growth (% plate coverage),[5]; 50 ppm,77.7%
same,average fungal growth (% plate coverage),[5]; 100 ppm,79.5%
same,"fungal growth (% plate coverage) compared to 0, 50 and 100 ppm (Tukey)","[5]; 250, 500 and 1000 ppm",significantly reduced
same,average fungal growth (% plate coverage),[5]; 250 ppm,38.6%
same,average fungal growth (% plate coverage),[5]; 500 ppm,25.7%
same,average fungal growth (% plate coverage),[5]; 1000 ppm,20.8%
same,inhibition against Fusarium,Fusarium; 100 ppm or lower,not very effective
same,inhibition against Fusarium,Fusarium; 250 ppm,very good inhibition
same,time for which growth of Fusarium is limited,Fusarium; 250 ppm,two weeks
